Test results from patent US10988792B2, “Methods for antimicrobial resistance determination” (bioMerieux, Inc., priority 2009, dated 2021).

Key:
[1] = test system: S. aureus strains ATCC 25923 (MSSA) and D14906 (MRSA); experiment: Titration of BOCILLIN-FL binding
Protocol: Samples of S. aureus strains ATCC 25923 (MSSA) and D14906 (MRSA) were grown in BacT/ALERT SA culture media at 37° C. for about 6 hours until an OD 660 nm of about 0.35 was reached. Dilutions of BOCILLIN™-FL (0.1 ml) were prepared in SA medium and placed into culture tubes. Samples of the bacterial suspension (0.9 ml) were added to the tubes and mixed. The tubes were capped and placed in a 37° C. incubator for 60 minutes. Samples (1.0 ml) were transferred to microfuge tubes containing 0.2 ml of the same oil blend used in Example 1, centrifuged for 1 minute, aspirated, and the pellet was resuspended in 0.1 ml PBS and then added to 3.0 ml PBS, pH 7.4 in an acrylic cuvette. The sample was scanned in the FluoroLog-3 system at an excitation wavelength of 490 nm and the fluorescence emission at 510 nm was recorded.

[2] = test system: Twenty different strains of S. aureus (10 MRSA and 10 MSSA strains); experiment: BOCILLIN-FL binding to a panel of MRSA and MSSA strains; settings: signal Ex490_Em510 normalized to tryptophan Ex285_Em350; 50 μM BOCILLIN-FL (0.1 ml) + 0.9 ml strain, 30 minutes at 37° C. (FIG. 4)
Protocol: Twenty different strains of S. aureus (10 MRSA and 10 MSSA strains, confirmed with cefoxitin discs and Vitek-2) were propagated. A loopful of growth (1 μL) was removed from 24-hour plates and suspended in BacT/ALERT SA culture media (8 ml in a glass screw-capped tube). The tubes were vortexed well and incubated at 36° C. for 6 hours. The OD of each suspension was measured at 660 nm and adjusted to approximately the same density (0.50-0.75 OD; sample #12166 was only 0.28). 50 μM BOCILLIN™-FL (0.1 ml) was placed into each of 20 labeled microfuge tubes. A sample of each strain (0.9 ml) was added to each tube, mixed, and incubated at 37° C. for 30 minutes. The reaction mixture was then removed and added to a second set of tubes containing 0.2 ml of an oil blend (1.000 part type DF immersion oil plus 0.875 part Drakeol 5 mineral oil). The tubes were centrifuged for 2 minutes at 10,000 rpm in an A-8-11 rotor (Eppendorf 5417R). The supernatant and most of the oil was aspirated with a vacuum device. The remaining oil was removed using a Gilson P200 tip and the pellet was resuspended in 100 μl PBS. The cells were transferred to an acrylic cuvette containing 3 ml PBS and read in the FluoroLog 3 system using the FluoroScan “Bocillin” points listed in Table 3. Additionally, Vitek AST cards were run on each of the 20 isolates (from the same 24 hour plates).

[3] = test system: S. aureus D14906 (Methicillin-Resistant; MRSA); experiment: BOCILLIN-FL binding after NaOH treatment (harsh pretreatment), oil blend separation
Protocol: (§1) Two experimental approaches were used to test BOCILLIN™-FL (Molecular Probes, Invitrogen) binding to S. aureus: (1) treating cells with sodium hydroxide (NaOH), neutralizing, adding BOCILLIN™-FL, then separating the cells (harsh pretreatment); and (2) culturing cells with BOCILLIN™-FL, then separating the cells (metabolic labeling).
(§2) For the first method, S. aureus strains ATCC 25923 (Methicillin-Sensitive; MSSA) and D14906 (Methicillin-Resistant; MRSA) were cultured until exponential growth (6 hours) in tryptic soy broth (TSB). Samples of each suspension (0.9 ml in TSB) and 0.1 N NaOH (0.1 ml; ±20 μl 7.5% TRITON® X100-R) were vortexed for 5 seconds, then either neutralized immediately or after 1 minute by adding 1 M KH2PO4 (0.125 ml) and vortexing for 5 seconds. BOCILLIN™-FL (15 μl of 1.0 mg/ml) was added to the suspension, which was then vortexed, and incubated for 5 minutes at room temperature. Unbound BOCILLIN™-FL was removed by centrifuging the mixture over 0.2 ml of an oil blend optimized to separate microorganisms from culture media (1.0 part of Type DF microscope immersion oil+0.875 parts of Drakeol 5 mineral oil) at 10,000 rpm for 1 minute. The supernatant and oil layer were removed and the pellet resuspended in 3.0 ml PBS, pH 7.4. The sample was scanned in the FluoroLog-3 system at an excitation wavelength of 490 nm and the fluorescence emission at 510 nm was recorded.

[4] = test system: S. aureus ATCC 25923 (Methicillin-Sensitive; MSSA); experiment: as above; settings: for MSSA/MRSA Ratio: MSSA (25923)/MRSA (D14906); for BOCILLIN-FL binding, fluorescence emission at 510 nm (excitation 490 nm): MSSA (25923)
Protocol: as §1, §2

[5] = test system: S. aureus strains ATCC 25923 (MSSA) and D14906 (MRSA); experiment: Time course of BOCILLIN-FL binding
Protocol: Samples of S. aureus strains ATCC 25923 (MSSA) and D14906 (MRSA) were grown in BacT/ALERT SA culture media at 37° C. until exponential growth was reached (8-10 hours). The OD 660 nm of each culture was measured and both suspensions were adjusted to 0.50 with pre-warmed SA media. BOCILLIN™-FL was diluted in pre-warmed SA media, filtered through a 0.2 μm filter and kept at 37° C. Samples of the bacteria (9.0 ml) were mixed with 1.0 ml of 100 μM BOCILLIN™-FL, mixed well, and dispensed as ten 1.0 ml aliquots into microfuge tubes containing 0.2 ml of the same oil blend used in Example 1. All tubes except the T0 tube were placed at 37° C. Tubes were removed and processed at 6, 11, 16, 22, 45, 60, 75, and 91 minutes. Each tube was centrifuged for 1 minute, the supernatant was aspirated, and the pellet was resuspended in 0.1 ml PBS and then added to 3.0 ml PBS in an acrylic cuvette. The sample was scanned in the FluoroLog-3 system at an excitation wavelength of 490 nm and the fluorescence emission at 510 nm was recorded.

For `Cc1cc(C)n2c1C=C1C=CC(CCC(=O)Nc3ccc(OCC(=O)N[C@@H]4C(=O)N5[C@@H]4SC(C)(C)[C@@H]5C(=O)[O-])cc3)=[N+]1[B-]2(F)F.[Na+]` [BOCILLIN™-FL], the “Shape of the MSSA binding curve” value ([1]; MSSA strain, second order polynomial curve fit) was “biphasic”, the “Difference in binding between the MSSA and MRSA strains” value ([1]; at about 0.5 μM BOCILLIN-FL) was 4 fold and the “Difference in binding between the MSSA and MRSA strains” value ([1]; at about 5 μM BOCILLIN-FL) was 3 fold. The “BOCILLIN-FL bound by the MSSA strain, more than the MRSA strain, per cell basis” value ([1]; depending on the BOCILLIN-FL concentration, 60 minutes at 37° C. (FIG. 3)) was 2-4 fold, the “BOCILLIN-FL bound by the five benzyl-penicillin sensitive strains versus the fifteen benzyl-penicillin resistant strains” value [2] was “over twice the amount” and the “BOCILLIN-FL binding, fluorescence emission at 510 nm (excitation 490 nm)” value (shortened to “BOCILLIN-FL binding”) ([3]; a = 5″ at pH 12) was 1.6 × 10^6. For the same compound, the “BOCILLIN-FL binding” value ([3]; b = 60″ at pH 12) was 0.9 × 10^6, the “BOCILLIN-FL binding” value ([3]; c = 5″ at pH 12 + TX100) was 0.6 × 10^6 and the “BOCILLIN-FL binding” value ([3]; d = 60″ at pH 12 + TX100) was 0.4 × 10^6. The “MSSA/MRSA Ratio” value ([4]; a = 5″ at pH 12) was 2.3, the “MSSA/MRSA Ratio” value ([4]; b = 60″ at pH 12) was 1.1 and the “MSSA/MRSA Ratio” value ([4]; c = 5″ at pH 12 + TX100) was 1.5. The “MSSA/MRSA Ratio” value ([4]; d = 60″ at pH 12 + TX100) was 2.0, the “BOCILLIN-FL binding” value ([4]; a = 5″ at pH 12) was 3.7 × 10^6 and the “BOCILLIN-FL binding” value ([4]; b = 60″ at pH 12) was 1.0 × 10^6. For the same compound, the “BOCILLIN-FL binding” value ([4]; c = 5″ at pH 12 + TX100) was 0.9 × 10^6, the “BOCILLIN-FL binding” value ([4]; d = 60″ at pH 12 + TX100) was 0.8 × 10^6 and the “BOCILLIN-FL bound by the MSSA strain, more than the MRSA strain, per cell basis” value ([5]; 1.0 ml of 100 μM BOCILLIN-FL mixed with 9.0 ml bacteria, irrespective of the culture time) was 2-3 times. For the same compound, the “Time at which maximal binding was measured” value ([5]; room temperature (the T0 tube), oil method) was 5 min.
